Results: patent publication US9645154B2, “Method for detecting cancer cell” (ARKRAY, Inc., priority 2010, dated 2017)

Assays:
Blood cells = experiment: Labeled sugar incorporation, fluorescence microscopy image analysis (false-positive/negative rate); format: cell-based, human
Description: Blood was collected from a human subject using a vacuum blood collection tube (with EDTA•2K). Blood cells were separated using HetaSep (STEMCELL Technologies) in accordance with manufacturer's instructions.
When performing the hemolyzing treatment, the blood cell fraction collected as described above was hemolyzed using ammonium chloride (STEMCELL Technologies) according to the manufacture's manuals.
The number of the cells was counted for each cell line using a hemacytometer in accordance with the conventional method, and then 10^5 to 10^6 cells per sample (cell suspension) was aliquoted. Each of the sample was centrifuged to remove the supernatant. Subsequently, 2-NBDG (Wako Pure Chemical Industries, Ltd.; at the final concentration given in Table 3 or 4) dissolved in Dulbecco's PBS (−) was added thereto, and the cells were suspended well. After the reaction, Dulbecco's PBS (−) was added to the mixture, and the resultant was centrifuged to remove the supernatant. The cells were resuspended with Dulbecco's PBS (−) and centrifuged, and the supernatant was removed again. The steps of resuspending cells with Dulbecco's PBS (−), centrifuging and removing the supernatant were then repeated 2 to 3 times, thereby washing the cells thoroughly. The cells were resuspended with Dulbecco's PBS (−), the concentration thereof was adjusted, and then added dropwise to a 384-well plate. The plate was centrifuged to spin down the cells. The image was captured with a fluorescence microscope (Nikon Corp.) using B-2A filter combination (Nikon Corp.). The B-2A set covers the following wavelengths. EX (excitation wavelength): 475±15 nm, DM: 505 nm or longer, BA (fluorescence wavelength) 520 nm or longer.
The acquired images were analyzed using an image analysis software NIS-ELEMENTS (trade name, Nikon Corp.) to evaluate the fluorescence intensity of the cell. […]

[1] = tested on: human breast adenocarcinoma cells (MCF-7); experiment: Fluorescence values of cell suspension reacted with aminolevulinic acid (i-densy); format: cell-based; conditions: 1 mM, 37° C.
Description: In accordance with the conventional method, human breast adenocarcinoma cells (cell line name: MCF-7; DS Pharma Biomedical Co., Ltd.) in culture was harvested with trypsin (Invitrogen). The cancer cell suspension harvested was centrifuged, and the supernatant was removed. The cells were resuspended with Dulbecco's PBS (+) (Nissui Pharmaceutical Co., Ltd.) and centrifuged, and the supernatant was removed again.
The number of the cells was counted using a hemacytometer in accordance with the conventional method, and then 2.8×10^5 cells per sample was aliquoted. […]
The fluorescence values of the cell suspension were measured using an i-densy (ARKRAY, Inc) at 15 minutes, 30 minutes, 60 minutes and 90 minutes after the start of the reaction. Conditions for fluorescence value measurement are as follows: 40° C. in the temperature regulated and light-intensity mode, Gain “3”, LED1 (390±20 nm for excitation)—PD3 (642.5±57.5 nm for detection).
In FIG. 7, the vertical axis represents fluorescence values, and the horizontal axis represents the reaction time. The solid squares represent fluorescence values obtained from the sample using Dulbecco's PBS (−) containing no Mg and Ca ions. The solid triangles represent fluorescence values obtained from the sample using Dulbecco's PBS (+) containing Mg and Ca ions. […]

[2] = fresh blood, Mean luminance, hemolyzed, 10 mM, 5 min, 23° C.
[3] = fresh blood, Total luminance, hemolyzed, 10 mM, 5 min, 23° C.
[4] = hemolyzed, 10 mM, 5 min, 23° C.
[5] = hemolyzed, 10 mM, 5 min, 23° C., threshold value 280 (Colon adenocarcinoma)
[6] = hemolyzed, 10 mM, 5 min, 23° C., threshold value 330 (Breast adenocarcinoma)
[7] = hemolyzed, 10 mM, 5 min, 23° C., threshold value 370 (Alveolar epithelial cancer)
[8] = hemolyzed, 10 mM, 5 min, 23° C., threshold value 370 (Fibrosarcoma)
[9] = hemolyzed, 10 mM, 5 min, 23° C., threshold value 490 (Gastric cancer)
[10] = hemolyzed, 10 mM, 5 min, 23° C., threshold value 880 (Prostate cancer)
[11] = hemolyzed, 0.1 mM, 37° C., 30 min, threshold value 380
[12] = hemolyzed, 1 mM, 37° C., 30 min, threshold value 520
[13] = hemolyzed, 10 mM, 37° C., 30 min, threshold value 1150
[14] = hemolyzed, 4° C., 10 mM, 5 min, threshold value 640
[15] = hemolyzed, 23° C., 10 mM, 5 min, threshold value 640
[16] = hemolyzed, 37° C., 10 mM, 5 min, threshold value 750
[17] = hemolyzed, 5 min, 10 mM, 37° C., threshold value 570
[18] = hemolyzed, 30 min, 10 mM, 37° C., threshold value 880
[19] = hemolyzed, 60 min, 10 mM, 37° C., threshold value 750
[20] = not hemolyzed, 10 mM, 5 min, 23° C.
[21] = single, Glucose conc.: 1 mM, Temp.: 37° C., Time: 30 min, threshold value 280 (Colon adenocarcinoma)
[22] = single, Glucose conc.: 1 mM, Temp.: 37° C., Time: 30 min, threshold value 370 (Fibrosarcoma)
[23] = single, Glucose conc.: 1 mM, Temp.: 37° C., Time: 30 min, threshold value 490 (Gastric cancer)
[24] = without hemolyzing treatment, 0.1 mM, 37° C., 30 min, threshold value 280
[25] = without hemolyzing treatment, 1 mM, 37° C., 30 min, threshold value 330
[26] = without hemolyzing treatment, 10 mM, 37° C., 30 min, threshold value 450 (concentration series)
[27] = without hemolyzing treatment, 4° C., 10 mM, 5 min, threshold value 310
[28] = without hemolyzing treatment, 23° C., 10 mM, 5 min, threshold value 360
[29] = without hemolyzing treatment, 37° C., 10 mM, 5 min, threshold value 390
[30] = without hemolyzing treatment, 5 min, 10 mM, 37° C., threshold value 380
[31] = without hemolyzing treatment, 30 min, 10 mM, 37° C., threshold value 450 (time series)
[32] = without hemolyzing treatment, 60 min, 10 mM, 37° C., threshold value 500

O=[N+]([O-])c1ccc(N[C@H]2C(O)O[C@H](CO)[C@@H](O)[C@@H]2O)c2nonc12 (stereo partly drawn) [2-NBDG, 2-[N-(7-nitrobenz-2-oxa-1,3-diazol-4-yl)amino]-2-deoxy-D-glucose]
Negative rate (Blood cells) (Blood cells; [2]): 95.2%
Positive rate of cancer cells (Blood cell data) (Blood cells; [2]): 4.8%
Negative rate (Blood cells) (Blood cells; [3]): 91.0%
Positive rate of cancer cells (Blood cell data) (Blood cells; [3]): 9.0%
Negative rate (Blood cells (fresh blood)) (Blood cells; [4]): 95.2%
Positive rate (Blood cells (fresh blood)) (Blood cells; [4]): 4.8%
Negative rate (Blood cells (fresh blood)) (Blood cells; [5]): 96.6%
Positive rate (Blood cells (fresh blood)) (Blood cells; [5]): 3.4%
Negative rate (Blood cells (fresh blood)) (Blood cells; [6]): 94.2%
Positive rate (Blood cells (fresh blood)) (Blood cells; [6]): 5.8%
Negative rate (Blood cells (fresh blood)) (Blood cells; [7]): 98.3%
Positive rate (Blood cells (fresh blood)) (Blood cells; [7]): 1.7%
Negative rate (Blood cells (fresh blood)) (Blood cells; [8]): 95.2%
Positive rate (Blood cells (fresh blood)) (Blood cells; [8]): 4.8%
Negative rate (Blood cells (fresh blood)) (Blood cells; [9]): 100.0%
Positive rate (Blood cells (fresh blood)) (Blood cells; [9]): 0.0%
Negative rate (Blood cells (fresh blood)) (Blood cells; [10]): 100.0%
Positive rate (Blood cells (fresh blood)) (Blood cells; [10]): 0.0%
Negative rate (Blood cells) (Blood cells; [11]): 100.0%
Positive rate (Blood cells) (Blood cells; [11]): 0.0%
Negative rate (Blood cells) (Blood cells; [12]): 98.9%
Positive rate (Blood cells) (Blood cells; [12]): 1.1%
Negative rate (Blood cells) (Blood cells; [13]): 100.0%
Positive rate (Blood cells) (Blood cells; [13]): 0.0%
Negative rate (Blood cells) (Blood cells; [14]): 100.0%
Positive rate (Blood cells) (Blood cells; [14]): 0.0%
Negative rate (Blood cells) (Blood cells; [15]): 99.2%
Positive rate (Blood cells) (Blood cells; [15]): 0.8%
Negative rate (Blood cells) (Blood cells; [16]): 98.5%
Positive rate (Blood cells) (Blood cells; [16]): 1.5%
Negative rate (Blood cells) (Blood cells; [17]): 99.1%
Positive rate (Blood cells) (Blood cells; [17]): 0.9%
Negative rate (Blood cells) (Blood cells; [18]): 99.7%
Positive rate (Blood cells) (Blood cells; [18]): 0.3%
Negative rate (Blood cells) (Blood cells; [19]): 97.1%
Positive rate (Blood cells) (Blood cells; [19]): 2.9%
Negative rate (Blood cells (fresh blood)) (Blood cells; [20]): 97.9%
Positive rate (Blood cells (fresh blood)) (Blood cells; [20]): 2.1%
Negative rate (Blood cells (fresh blood)) (Blood cells; [21]): 96.6%
Positive rate (Blood cells (fresh blood)) (Blood cells; [21]): 3.4%
Negative rate (Blood cells (fresh blood)) (Blood cells; [22]): 95.2%
Positive rate (Blood cells (fresh blood)) (Blood cells; [22]): 4.8%
Negative rate (Blood cells (fresh blood)) (Blood cells; [23]): 100.0%
Positive rate (Blood cells (fresh blood)) (Blood cells; [23]): 0.0%
Negative rate (Blood cells) (Blood cells; [24]): 100.0%
Positive rate (Blood cells) (Blood cells; [24]): 0.0%
Negative rate (Blood cells) (Blood cells; [25]): 98.5%
Positive rate (Blood cells) (Blood cells; [25]): 1.5%
Negative rate (Blood cells) (Blood cells; [26]): 98.9%
Positive rate (Blood cells) (Blood cells; [26]): 1.1%
Negative rate (Blood cells) (Blood cells; [27]): 99.1%
Positive rate (Blood cells) (Blood cells; [27]): 0.9%
Negative rate (Blood cells) (Blood cells; [28]): 97.9%
Positive rate (Blood cells) (Blood cells; [28]): 2.1%
Negative rate (Blood cells) (Blood cells; [29]): 99.0%
Positive rate (Blood cells) (Blood cells; [29]): 1.0%
Negative rate (Blood cells) (Blood cells; [30]): 98.6%
Positive rate (Blood cells) (Blood cells; [30]): 1.4%
Negative rate (Blood cells) (Blood cells; [31]): 98.9%
Positive rate (Blood cells) (Blood cells; [31]): 1.1%
Negative rate (Blood cells) (Blood cells; [32]): 91.2%
Positive rate (Blood cells) (Blood cells; [32]): 8.8%

NCC(=O)CCC(=O)O [aminolevulinic acid, 5-amino-4-oxopentanoic acid]
reactivity of aminolevulinic acid (fluorescence values of the cell suspension) ([1]; 15 to 90 minutes, Dulbecco's PBS (+) containing Mg and Ca ions versus PBS (−), FIG. 7): can be improved
reactivity of aminolevulinic acid (fluorescence values of the cell suspension) ([1]; Dulbecco's PBS (+) with Mg and Ca ions plus 10 μM ENDO-PORTER, FIG. 8): further improves the reactivity
